Assay results published in publication PMC11813147, “Bioactivity assessment of peptides derived from salted jellyfish (Rhopilema hispidum) byproducts” (PLOS ONE, 2025).

Legend:
[1] = ABTS radical scavenging assay; assay type: biochemical; details: supplement tables; for ABTS, mean±SD: n = 3
Experimental: The ABTS radical scavenging activity of the sample was measured using a method adapted from Mirzaei et al.. The ABTS radical was generated by mixing 7 mM ABTS with 2.45 mM potassium persulfate in a 1:1 ratio and incubating the mixture in the dark at room temperature for 12 to 16 h. The resulting solution was then diluted to achieve an absorbance of 0.74 ± 0.03 at 734 nm, using deionized water for adjustments. Next, 10 μL of the sample was added to 190 μL of the ABTS solution. The mixture was incubated in the dark for 7 min, after which the absorbance was measured at 734 nm. The ABTS radical scavenging activity (%) was calculated using the following equation (2):
ABTSradicalscavengingactivity%=Acontrol–Asample/Acontrol×100 (2)
In this equation, Acontrol refers to the absorbance of the control solution (which contains all reagents except the test samples), while Asample refers to the absorbance of the mixture containing the sample and the ABTS solution. To determine the Trolox equivalent antioxidant capacity (TEAC), a Trolox standard curve was used, and the results were expressed as millimoles of Trolox equivalents per milligram of protein (mM TE/mg protein).

[2] = Ferric reducing antioxidant power (FRAP) assay; assay type: biochemical
Experimental: The FRAP assay was conducted following the method outlined by Rumpf et al.. The FRAP solution was prepared by mixing 300 mM acetate buffer (pH 3.6), 10 mM TPTZ (2,4,6-Tris(2-pyridyl)-s-triazine) in 40 mM hydrochloric acid, and 20 mM FeCl3 in a ratio of 10:1:1. In a 96-well plate, 10 μL of the sample was combined with 190 μL of the FRAP solution and incubated in the dark for 15 min. The absorbance of the mixture was then measured at 593 nm. FeSO4 was used to create the standard curve, and the results were expressed as millimoles of FeSO4 equivalent per milligram of protein (mM FeSO4/mg protein).

[3] = DPPH radical scavenging assay; assay type: biochemical; details: for DPPH, mean±SD / DPPH: supplement tables; for DPPH, mean±SD / DPPH radical scavenging activity (TEAC): n = 3, mean ± SD; for DPPH radical scavenging activity (TEAC): 10 µL sample + 190 µL 0.1 mM DPPH in 70% ethanol, 30 min dark, room temperature, 517 nm, Trolox standard curve
Experimental: The DPPH radical scavenging activity of the sample was assessed following a modified protocol based on a previous study. In each well of a 96-well plate, 10 μL of the sample was added, followed by 190 μL of 0.1 mM DPPH solution in 70% ethanol. The mixture was then incubated at room temperature in the dark for 30 min. After the incubation period, the absorbance of the mixture was measured at 517 nm. The DPPH radical scavenging activity was calculated using the following equation (1):
DPPHradicalscavengingactivity%=Acontrol–Asample/Acontrol×100 (1)
In this equation, Acontrol represents the absorbance of a control solution containing all reagents except for the test samples, while Asample is the absorbance of the mixture (the sample combined with 0.1 mM DPPH). To determine the Trolox equivalent antioxidant capacity (TEAC), a Trolox standard curve was utilized. The results were expressed as millimoles of Trolox equivalents per milligram of protein (mM TE/mg protein).

RAW 264.7 [4] = assay: Cytotoxicity assessment (MTT); assay type: cell-based, Murine; details: peptide 10 µg/mL, 72 h; for Cell viability, mean±SD: relative to untreated cells
Experimental: (§1) Murine macrophage cells (RAW 264.7; ATCC TIB-71™) were cultured in Dulbecco’s Modified Eagle’s Medium (DMEM) that was supplemented with 10% heat-inactivated fetal bovine serum (FBS) and 1% antibiotic solution. Colorectal adenocarcinoma cells (CaCo-2; ATCC HTB 37™) were cultured in Eagle’s Minimum Essential Medium (EMEM), also supplemented with 10% heat-inactivated FBS and 1% antibiotic solution. Both cell types were maintained in a humidified incubator with 5% CO2. The cell culture medium was refreshed every three days.
Cytotoxicity assessment was performed following the method described by Yang et al., with slight modifications. RAW 264.7 was seeded with 1 x 10^5 cells in a 96-well plate with an appropriate cell culture medium. After allowing the cells to attach, the medium was replaced with a fresh cell culture medium containing the peptide samples at a concentration of 10 µg/mL. The treated cells were incubated for an additional 72 h. At the designated time, fresh medium was added, which included 3-(4,5-dimethylthiazol-2-yl)-2,5-diphenyltetrazolium bromide (MTT) at a concentration of 0.5 mg/mL. After 3 h, formazan crystals were observed. The medium was then removed, and the crystals were dissolved in 100% dimethyl sulfoxide (DMSO). A microplate reader (Synergy HTX; Biotek, Multi-Mode Reader, Winooski, VT, USA) was utilized to measure the absorbance at 570 nm (measurement wavelength) and 630 nm (reference wavelength). The percentage of cell viability was calculated relative to untreated cells using the following equation (5):
Cellviability%=ODtreatment–ODblank/ODuntreated–ODblank×100 (5)
Where ODtreatment is the absorbance of the treated sample, ODuntreated is the absorbance of the untreated sample, and ODblank is the absorbance from wells without treated and untreated samples.

RAW 264.7 [5] = assay: Anti-inflammation assay: released NO in LPS-stimulated RAW 264.7 (Griess); assay type: cell-based, Murine; details: then 1 µg/mL LPS 24 h; for Released NO: peptide 10 µg/mL 1 h; for Released NO, mean±SD: peptide 10 µg/mL pre-treatment 1 h, Griess reagent, n = 3
Experimental: as §1
The anti-inflammation assay was conducted following the method described by Barzkar et al. with slight modifications. RAW 264.7 (1 x 10^5 cells) was seeded into a 96-well plate to allow for cell attachment. After 24 h, the cells were pre-treated with fresh medium containing peptide samples at a concentration of 10 µg/mL for 1 h. Subsequently, the treated cells were stimulated with 1 µg/mL lipopolysaccharide (LPS) for an additional 24 h. Unstimulated cells were included as a negative control. At the end of the treatment period, the conditioned medium was collected for the determination of released nitric oxide (NO). Griess’s reagent (Promega) was utilized to measure the NO concentration, following the manufacturer’s instructions. A NO calibration curve was generated to quantify the released NO in the conditioned medium.

[6] = 10 µL sample + 190 µL FRAP solution, 15 min dark, 593 nm, FeSO4 standard curve, mean ± SD, n = 3, SD

| Sequence | ABTS, mean±SD [1] | ABTS ([1]; replicate 1) [TE/mg protein] | ABTS ([1]; replicate 2) [TE/mg protein] | ABTS ([1]; replicate 3) [TE/mg protein] | FRAP [2, 6] | FRAP ([2]; supplement tables, replicate 1) [mM FeSO4/mg protein] | FRAP ([2]; supplement tables, replicate 2) [mM FeSO4/mg protein] | FRAP ([2]; supplement tables, replicate 3) [mM FeSO4/mg protein] | DPPH, mean±SD [3] | DPPH ([3]; replicate 1) [TE/mg protein] | DPPH ([3]; replicate 2) [TE/mg protein] | DPPH ([3]; replicate 3) [TE/mg protein] | Cell viability, mean±SD (RAW 264.7 [4]; n = 3, SD) | Cell viability (RAW 264.7 [4]; replicate 1) [%] | Cell viability (RAW 264.7 [4]; replicate 2) [%] | Cell viability (RAW 264.7 [4]; replicate 3) [%] | Released NO (RAW 264.7 [5]; replicate 1) [µM] | Released NO (RAW 264.7 [5]; replicate 2) [µM] | Released NO (RAW 264.7 [5]; replicate 3) [µM] | Released NO, mean±SD (RAW 264.7 [5]; SD) | other results |
| --- | --- | --- | --- | --- | --- | --- | --- | --- | --- | --- | --- | --- | --- | --- | --- | --- | --- | --- | --- | --- | --- |
| LGAEGRSP [P13, synthesized peptide identified from jellyfish fraction PUR20C] | 6.51±0.87^H TE/mg protein | 5.91 | 6.11 | 7.51 | 4.82±0.73^H mM FeSO4/mg protein | 4.89 | 5.52 | 4.05 | 5.85±0.66^D TE/mg protein | 5.23 | 5.76 | 6.56 | 82.77±1.53% | 81.72 | 82.07 | 84.53 | 35.17 | 35.51 | 37.58 | 36.09 µM | – |
| LNIPKPKLNLL [P11, synthesized peptide identified from jellyfish fraction PUR20C] | 3.91 TE/mg protein | 4.11 | 3.71 | 3.91 | 6.36±0.63^G mM FeSO4/mg protein | 6.36 | 7.00 | 5.73 | 3.81±0.40^E TE/mg protein | 3.90 | 3.37 | 4.17 | 84.71% | 84.53 | 85.41 | 84.18 | 36.55 | 35.86 | 37.58 | 36.66 ± 0.86 µM | – |
| MVVACVLPEA [P16, synthesized peptide identified from jellyfish fraction PUR20C] | 121.31±0.87^D TE/mg protein | 121.71 | 120.30 | 121.91 | 6.92 mM FeSO4/mg protein | 8.05 | 7.63 | 5.10 | 56.07±0.30^A TE/mg protein | 55.89 | 55.89 | 56.42 | – | 81.01 | 81.37 | 81.19 | 35.17 | 33.44 | 35.17 | 34.59 ± 0.99 µM | DPPH radical scavenging activity (TEAC) [3]: strongest DPPH radical scavenging activity; DPPH radical scavenging activity (TEAC) ([3]; listed as MVVACVLPEA): 56.07 mM TE/mg protein; Cell viability, mean±SD (RAW 264.7 [4]; n = 3): without cytotoxic effects; Released NO, mean±SD (RAW 264.7 [5]): 34.59 µM |
| NQKAMQELNE [P1, synthesized peptide identified from jellyfish fraction PUR20C] | 4.44 TE/mg protein | 4.91 | 4.11 | 4.31 | 8.61±0.12^E mM FeSO4/mg protein | 8.47 | 8.68 | 8.68 | 1.16±0.15^H TE/mg protein | 0.99 | 1.25 | 1.25 | 85.94% | 88.04 | 85.76 | 84.00 | 37.58 | 38.27 | 37.93 | 37.93 µM | – |
| PFTMYFLL [P14, synthesized peptide identified from jellyfish fraction PUR20C] | 119.57±1.33^E TE/mg protein | 118.70 | 118.90 | 121.11 | 9.24±1.05 mM FeSO4/mg protein | 10.36 | 9.10 | 8.26 | 6.29±0.53^D TE/mg protein | 6.29 | 5.76 | 6.82 | 90.09±2.78^B % | 87.69 | 89.45 | 93.14 | 32.06 | 31.03 | 34.48 | 32.52±1.76^F µM | – |
